Assay results published in ChEMBL document CHEMBL4414652, “Identification of Methionine Aminopeptidase-2 (MetAP-2) Inhibitor M8891: A Clinical Compound for the Treatment of Cancer” (J Med Chem, 2019).
In brackets after ≈: the same amount, converted by molar mass.

Key:
[1] = molecular target: Methionine aminopeptidase 1 (Homo sapiens, UniProt P53582)
Description: Inhibition of N-terminal MetAP1 (unknown origin)

in vivo [2] = details: mouse, faeces, iv
Description: Drug recovery in iv dosed mouse feces

[3] = Drug recovery in monkey at 0.2 mg/kg, iv measured up to 72 hrs; type: ADME, organism-based, Macaca mulatta; details: rhesus monkey, in vivo
[4] = Drug recovery in dog at 0.2 mg/kg, iv measured up to 72 hrs; type: ADME, organism-based, Canis lupus familiaris; details: in vivo
[5] = mouse, in vivo, iv, 1 mg/kg
in vitro [6] = details: human, plasma
Description: Protein binding in human plasma assessed as unbound fraction

in vivo [7] = details: mouse, iv
Description: Half life in iv dosed mouse

physchem = details: PBS buffer
Description: Solubility of compound in PBS buffer

in vitro [8] = details: mouse, plasma
Description: Protein binding in mouse plasma assessed as unbound fraction

Description for CAKI-1: Antitumour activity against human Caki1 cells xenografted in nude CD-1 mouse assessed as tumor growth at 25 mg/kg, po BID for 36 days relative to control
Description for U-87 MG: Antitumour activity against human U87MG cells xenografted in nude CD-1 mouse assessed as tumor growth at 20 mg/kg, po administered daily for 14 days relative to control

| SMILES | IC50 [1] | dose excreted (in vivo [2]) | further results |
| --- | --- | --- | --- |
| CCNC(=O)c1cc2cc(N3CC[C@](O)(C(=O)NCc4cc(F)cc(Cl)c4)C3=O)ccc2[nH]1 | > 10 µM | – | – |
| CS(=O)(=O)Nc1cccc(N2CC[C@](O)(C(=O)NCc3cc(F)cc(Cl)c3)C2=O)c1 | > 10 µM | – | – |
| O=C(NCc1cc(F)cc(Cl)c1)[C@@]1(O)CCN(c2cnc3[nH]ccc3c2)C1=O | > 10 µM | 2.3% | T/C (U-87 MG): 45% |
| O=C(NCc1cc(F)cc(F)c1)[C@@]1(O)CCN(c2ccc3[nH]ncc3c2)C1=O | > 10 µM | < 1% | – |
| O=C(NCc1cc(F)cc(F)c1)[C@@]1(O)CCN(c2cnc3[nH]ccc3c2)C1=O | > 10 µM | < 1% | T/C (CAKI-1): 39% |
| NCCCNC(=O)c1cc2cc(N3CC[C@](O)(C(=O)NCc4cc(F)cc(Cl)c4)C3=O)ccc2[nH]1 | > 10 µM | – | – |
| O=C(NCc1cc(F)cc(Cl)c1)[C@@]1(O)CCN(c2ccc3[nH]ncc3c2)C1=O | > 10 µM | < 1% | – |
| O=C(NCc1cc(F)cc(Cl)c1)[C@@]1(O)CCN(c2ccc3[nH]ccc3c2)C1=O | > 10 µM | < 1% | – |
| Cc1cc2cc(N3CC[C@](O)(C(=O)NCc4cc(F)cc(Cl)c4)C3=O)ccc2[nH]1 | > 10 µM | – | – |
| O=C(NCc1cc(F)cc(Cl)c1)[C@@]1(O)CCN(c2cnc3[nH]cc(Cl)c3c2)C1=O | > 10 µM | 1.5% | – |
| O=C(NCc1cc(F)cc(F)c1)[C@@]1(O)CCN(c2cnc3[nH]cc(Cl)c3c2)C1=O | > 10 µM | 2.7% | – |

The next lines start with results.

| IC50 [1] | dose excreted (in vivo [2]) | SMILES | further results |
| --- | --- | --- | --- |
| > 10 µM | – | O=C1CCc2cc(N3CC[C@](O)(C(=O)NCc4cc(F)cc(Cl)c4)C3=O)cc(F)c2N1 | – |
| > 10 µM | – | O=C1CCc2cc(N3CC[C@](O)(C(=O)NCc4cc(F)c(F)c(F)c4)C3=O)ccc2N1 | – |
| > 10 µM | – | CN1C(=O)CCc2cc(N3CC[C@](O)(C(=O)NCc4cc(F)cc(Cl)c4)C3=O)ccc21 | – |
| > 10 µM | – | O=C1CCc2cc(N3CC[C@](O)(C(=O)NCc4cc(F)cc(F)c4)C3=O)ccc2N1 | – |
| > 10 µM | – | O=C1CCc2cc(N3CC[C@](O)(C(=O)NCc4cc(F)ccc4Cl)C3=O)ccc2N1 | – |
| > 10 µM | – | O=C1CCc2cc(N3CC[C@](O)(C(=O)NCc4c(F)cccc4Cl)C3=O)ccc2N1 | – |
| > 10 µM | 23% | O=C1CCc2cc(N3CC[C@](O)(C(=O)NCc4cc(F)cc(Cl)c4)C3=O)ccc2N1 | Drug recovery [3]: Active; Drug recovery [4]: Active; AUC [5]: 19 ng·h/mL; T/C (U-87 MG): 45%; fraction unbound (in vitro [6]): 0.023; half-life (in vivo [7]): 180 min; solubility (physchem): 90 µg/mL (≈ 208 µM); fraction unbound (in vitro [8]): 0.017 |
| > 10 µM | – | O=C1CCc2cc(N3CC[C@](O)(C(=O)NCc4cccc(F)c4F)C3=O)ccc2N1 | – |
| > 10 µM | – | O=C1CCc2cc(N3CC[C@](O)(C(=O)NCc4cccc(Cl)c4F)C3=O)ccc2N1 | – |
| > 10 µM | – | O=C1CCc2cc(N3CC[C@](O)(C(=O)NCc4cc(F)cc(Cl)c4F)C3=O)ccc2N1 | – |
| > 10 µM | – | O=C1CCc2cc(N3CC[C@](O)(C(=O)NCc4cc(F)cc(F)c4F)C3=O)ccc2N1 | – |
| > 10 µM | – | O=C1CCc2cc(N3CC[C@](O)(C(=O)NCc4c(F)cccc4F)C3=O)ccc2N1 | – |
| > 10 µM | – | O=C1CCc2cc(N3CC[C@](O)(C(=O)NCc4c(F)ccc(F)c4F)C3=O)ccc2N1 | – |
| > 10 µM | – | O=C1CCc2cc(N3CC[C@](O)(C(=O)NCc4ccc(F)c(Cl)c4F)C3=O)ccc2N1 | – |
